Converted amounts (≈) assume the structure as drawn. Like-named read-outs stand apart in the source and are kept apart here.
What was measured:
[1] = system: Bacillus cereus ATCC 11778; assay: MIC, Bacillus cereus; format: cell-based
[2] = system: Salmonella Typhimurium ATCC 14028; assay: MIC, Salmonella Typhimurium; format: cell-based; details: Salmonella enterica
[3] = system: Acinetobacter baumannii BCRC 80276; assay: MIC, Acinetobacter baumannii; format: cell-based; details: BCRC80276
[4] = system: MSSA ATCC 29213 or MRSA ATCC 33592; assay: Survival of MSSA- or MRSA-infected C. elegans; format: in vivo, Caenorhabditis elegans; details: 2- to 8-folds of MIC in S-medium, versus DMSO control
Experimental: FIG. 2. SC5005 protects C. elegans from S. aureus infection. Effect of SC78 and SC5005 on the survival of MSSA- or MRSA-infected C. elegans was assessed. The glp-4(bn2) C. elegans were fed on E. coli (OP50), MSSA (ATCC 29213) or MRSA (ATCC 33592) followed by exposing to SC78 or SC5005 at concentrations of 2-, 4-, 8-folds of respective MIC in S-medium. The survival of worms was monitored daily till the end of the study. The survival of animals fed with E. coli (OP50) and receiving DMSO only was served as a control to show the normal life-span of C. elegans.
Caenorhabditis elegans has been broadly used as a model host for the studies of human infectious diseases, including infections caused by S. aureus. To investigate whether SC78 and SC5005 can suppress the infection of S. aureus in C. elegans, worms were infected with MSSA ATCC 29213 or MRSA ATCC 33592 followed by exposing to individual drugs at concentrations of 2- to 8-folds of respective MIC in S-medium. Control groups were treated with DMSO at concentration equal to that of drug treated groups (final concentration, 0.1%).

[5] = system: MSSA ATCC 29213; assay: MIC, MSSA ATCC 29213; format: cell-based, Staphylococcus aureus; details: Table 6
[6] = system: MRSA (ATCC 43300); assay: MIC, MRSA ATCC 43300; format: cell-based, methicillin-resistant Staphylococcus aureus; details: MRSA (ATCC 43300)
[7] = system: S. aureus NCTC 8325; assay: Biosynthesis of macromolecules (3H precursor incorporation); format: cell-based, Staphylococcus aureus; details: 4×MIC for 1 h
Experimental: FIG. 5. Effect of SC5005 and SC5035 on the biosynthesis of macromolecules in S. aureus. […] Meanwhile, ofloxacin (1 mg/L), rifampicin (1 mg/L), erythromycin (2 mg/L), and vancomycin (2 mg/L) were used as control inhibitors for the biosynthesis of DNA, RNA, protein and cell wall, respectively. Data are means of three independent experiments. Error bars represent the SD.
To investigate the mode of action of SC5005, a new derivative, SC5035, with better selectivity of antibacterial activity over cytotoxicity was included in the assays. First, the impacts of these two compounds on the biosynthesis of important macromolecules, including DNA, RNA, protein and cell wall, in S. aureus NCTC 8325 were assessed. Bacteria cells were incubated with [^3H]thymidine to assess DNA synthesis, [^3H] uridine to assess RNA synthesis, [^3H] leucine to assess protein synthesis, and [^3H] N-Acetyl-D-glucosamine to assess cell wall synthesis. The ofloxacin, rifampicin, erythromycin and vancomycin were used as control inhibitor for DNA, RNA, protein, and cell wall biosynthesis, respectively. Inhibition of biosynthesis pathway was determined by a reduction in the radial isotope signal of bacteria.

[8] = system: S. aureus NCTC 8325; assay: Membrane integrity (SYTO 9 / propidium iodide staining); format: cell-based, Staphylococcus aureus; details: 4×MIC (Triton X-100: 10%) for 15 minutes
From the text: FIG. 7. Membrane integrity of S. aureus after SC5005, SC5035 and five common antibiotics treatment. […] SYTO 9, a green fluorescence dye, stains chromosome of all bacteria cells, regardless of the membrane integrity. In contrast, propidium iodide (PI), a red fluorescence dye, only stains cell with damaged membrane. Thus, bacteria cell with intact membrane can only be stained by SYTO 9, and cell with perforated membrane will be stained by both fluorescence dyes, showing a yellow color in merged images.
To further validate the action mechanism of SC5005 and SC5035, two fluorescence dyes were used for evaluation of membrane integrity of drug treated S. aureus. The propidium iodide dye only stains cells with perforated membrane, while the SYTO 9 stains all cells in spite of membrane integrity.

[9] = system: S. aureus NCTC 8325; assay: Transmission electron microscopy of cell membrane; format: cell-based, Staphylococcus aureus; details: 15 min treatment, 100,000 magnifications
Experimental: FIG. 8. Transmission electron microscopy image of S. aureus after SC5005 treatment. S. aureus NCTC 8325 was treated with (A) mock or (B) SC5005 for 15 min followed by glutaraldehyde (2.5%) fixation and osimium tetraoxide (1%) staining. The membrane integrity was then observed with transmission electron microscopy at 100,000× magnification. The outer black ring marked with CW represents cell wall, and the inner black ring marked with CM represents cell membrane. The arrow points the pore formed in S. aureus cell membrane.
To investigate how SC5005 changes membrane permeability of S. aureus, bacteria cells were treated with SC5005 for 15 min followed by glutaraldehyde (2.5%) fixation and osimium tetraoxide (1%) staining. The membrane of bacteria was then observed by Transmission electron microscopy (TEM) at 100,000 magnifications (FIG. 8). The outer clear black circle is cell wall of S. aureus, and the inner clear black circle is cell membrane of S. aureus. These two circles of control treated S. aureus remain intact, and the cell membrane is undamaged.

[10] = system: human red blood cells; assay: Hemolytic activity; format: cell-based
Experimental: FIG. 9. Hemolytic activities of SC5005 and SC5035 on human red blood cell. Human red blood cells were incubated with SC5005 (A) and SC5035 (B) for 1 h followed by measuring the absorption of RBC released hemoglobin at 540 nm with microplate reader. Cell treated with 1% triton X-100 serves as positive control (P.C.; 100% hemolysis), and those treated with normal saline serves as negative control (N.C.) Bars represent the mean, and error bars represent the SD (n=3).
As data shown above, SC5005 and SC5035 can kill bacteria via forming pore in bacterial membrane. To see whether the pore-forming activity of these two compounds is specific for bacterial membrane, the hemolytic activities of these two agents on human red blood cells were accessed.

[11] = system: MRSA (ATCC 33592); assay: Survival of MRSA-infected C57BL/6 mice, intraperitoneal administration; details: surviving mice, 10 mg/kg
Experimental: (A) Effect of intraperitoneal administration of SC5005 on the survival of MRSA-infected mice. Female C57BL/6 mice were inoculated intraperitoneally with 5×10^4 CFU of MRSA (ATCC 33592). Infected mice received intraperitoneal injection of 1 mg/kg (filled inverted triangles), 3 mg/kg (filled triangles) and 10 mg/kg (filled squares) SC5005 or vehicle (mock) (filled circles) once per day for three consecutive days. Survival rates, as represented by Kaplan-Meier curves, are shown for the mock and SC5005 treatment groups. *P<0.05, for the difference between treated groups and the control group. (B) Body weight changes in individual vehicle or SC5005-treated MRSA-infected mice. Each line represents an individual mouse. The black lines indicate mice that survived until the end of the study and the grey lines indicate mice that were euthanized during the study.
To further evaluate the therapeutic potential of SC5005 against MRSA infection, inbred C57BL/6 mice were intraperitoneally injected with a lethal dose (5×10^4 CFU) of MRSA (ATCC 33592), followed by intraperitoneal administration of vehicle control or SC5005 (1 mg/kg, 3 mg/kg or 10 mg/kg) at 1 h, 24 h and 48 h post-infection (N=5 for each group).

SMILES	MIC ([1]; ATCC11778, read-out: MIC) [µg/mL]	MIC [2] [µg/mL]	MIC [3] [µg/mL]	survival of MSSA- or MRSA-infected worms [4]	MIC [5] [µg/mL]	MIC [1] [µg/mL]	MIC [6] [µg/mL]	incorporation signal in DNA, RNA, protein and cell wall biosynthesis [7]	propidium iodide staining (membrane integrity) [8]	pore formation in cell membrane (TEM) [9]	hemolysis of RBC [10]	time for body weight to return to pre-infection levels [11] [days]
O=C(Nc1ccc(Cl)c(C(F)(F)F)c1)Nc1ccc(Cl)c(C(F)(F)F)c1 [SC78]	0.25 (≈ 0.599 µM)	> 64	> 64	no significant difference was observed in the survival	–	–	–	–	–	–	–	–
O=C(Nc1ccc(Cl)c(C(F)(F)F)c1)C(CCCl)C(=O)Nc1ccc(Cl)c(C(F)(F)F)c1 [SC5005]	–	–	–	significant increase in the mean survival	0.5 (≈ 0.958 µM)	0.5 (≈ 0.958 µM)	0.5 (≈ 0.958 µM)	lower signal in all four macromolecule biosynthesis pathway	can be stained by propidium iodide	a pore was observed in the membrane of most bacteria cells	no significant hemolysis	2 to 5

Source: patent US10800732B2, “Substituted malonamides and their use as antibacterial drugs” (National Taiwan University, priority 2015, dated 2020)
